Key:
G12D KRAS [1] = target: T1, G12D KRAS (Homo sapiens, UniProt P01116, G12D); assay: Intrinsic fluorescence (IF) binding affinity, G12D KRAS bound to GNP
Experimental: (§1) FIGS. 2A-I illustrates the measurements of binding affinity of ligands to wild type (WT) or G120 KRAS bound to the GTP analogue GNP and, for selected exemplary embodiments, effect of ligands on the rate of SOS-mediated nucleotide exchange reaction. Binding affinity was determined using intrinsic fluorescence, which made use of the ligands' intrinsic fluorescence and the accompanying change (decrease or increase in intensity) upon binding to KRAS.
as §1, with “G12D” for “G120”, “reaction,” for “reaction.”
(§2) Solutions of ligand (0 to 50 μM) are mixed with equal volumes of KRAS (fixed concentration) and fluorescence spectra are obtained. The difference spectra (between KRAS-ligand mixture and ligand alone) are plotted and the area under the curve is obtained. Kd is estimated from the plot of area versus the ligand concentration. SOS-mediated nucleotide rate was monitored using the fluorescence intensity increase of BODIPY-GTP (B GTP) as it displaces GDP from KRAS. The reaction mixture (100 μL, 96 well plate) contained 0.5 μM K-Ras-GDP, 0.5 μm B-GTP, 0.5 μM SOS and varying concentrations of ligands (0 to 25 μM). B-GTP and SOS mixture was added just before measurements(excitation: 485 nm, emission: 510 nm; TECAN Infinite 200 plate reader). The reaction was monitored for 1 hour. The experiments were conducted with minimal light, Fluorescence intensities were normalized with respect to the value obtained at 120 s and the traces were fit with exponential function (Igor Pro, Wavemetrics).
(§3) Note: For FIGS. 1A-H 1 (as well as one of the curves in FIGS. 2A-I), dissociation constant (Kd) was determined using either Microscale Thermophoresis (MST) or Intrinsic Fluorescence (IF) assay. MST assay uses fluorescence to monitor movement of molecules in response to temperature gradient created by infrared laser.

wild type (WT) KRAS = wild type (WT) KRAS (Homo sapiens, UniProt P01116); assay: Intrinsic fluorescence (IF) binding affinity, WT KRAS bound to GNP
wild type (WT) KRAS, sequence (P01116 1-188 isoform P01116-2): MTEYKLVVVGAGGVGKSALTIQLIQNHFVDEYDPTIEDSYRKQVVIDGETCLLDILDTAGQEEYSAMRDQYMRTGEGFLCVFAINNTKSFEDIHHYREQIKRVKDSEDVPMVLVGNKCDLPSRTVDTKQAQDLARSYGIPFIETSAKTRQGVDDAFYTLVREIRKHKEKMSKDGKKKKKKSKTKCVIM
Experimental: as §1
as §1, with “G12D” for “G120”, “reaction,” for “reaction.”
as §2, §3

G12D KRAS [2] = target: T1, G12D KRAS; assay: Microscale thermophoresis (MST) Kd, G12D KRAS; format: binding
Experimental: (§4) Measurement of compound binding affinity to KKRAS using microscale thermophoresis (MST). MST is based on the movement of molecules in response to temperature gradient. […] KRAS was buffer-exchanged in the labeling buffer (40 mM HEPES, pH 7.5, 5 mM MgCl2, and 500 mM NaCl) using a spin column (provided in the kit) The concentration of the eluted protein was adjusted (10 to 20 μM) and 2-3 fold concentration of the dye (in labeling buffer) was added (200 μL final volume), The solution was incubated for 30 minutes at room temperature in the dark. Labeled KRAS was purified using the column provided in the kit or MST measurements, 16 point serial dilutions of ligands were made in MST Assay Buffer (40 mM HEPES, pH 7.5, 5 mM MgCl2, 100 mM NaCl+0.05% Tween-20+2-4% DMSO) and added to 100 nM KRAS. The solutions were loaded in capillaries and measurements were done using 20% LED power and 40% MST power. The data were fit in Igor Pro using Hill equation or the function in the instrument software.
(§5) Microscale thermophoresis (MST) assays were used to measure the affinity of lead compound analogs for KRAS. In a typical experiment, 100 nM KRAS labeled with a dye amine-reactive red NT-647 from NanoTemper) was mixed with different concentrations of ligand and incubated in a binding buffer (40 mM HEPES, pH 7.5, 5 mM MgCl2, 150 mM NaCl, 0.05% polysorbate 20, and 2% DMSO) at room temperature for 10 min before being loaded into a capillary. Thermophoresis is carried out and dissociation constant calculated by monitoring changes in fluorescence intensity. A monolith NT.115 Reader from NanoTemper can be used for MST experiments, with 40% MST and 20% LED power.
as §3

WT KRAS [3] = target: T2, WT KRAS (Homo sapiens, UniProt P01116); assay: Intrinsic nucleotide exchange assay, WT KRAS; format: biochemical; conditions: for EC50: intrinsic nucleotide exchange, dose-response; for Intrinsic nucleotide exchange WT, single-dose test (effect / No effect): 25 microMolar ligand
T2 sequence (P01116 1-188 isoform P01116-2): as above
Experimental: (§6) In other experiments, the compounds disclosed herein can be tested for their abilities to affect rates of intrinsic and SOS-catalyzed nucleotide exchange and release. These assays use fluorescently-labeled BODIPY-GDP (BGDP) and BODIPY-GTP (BGTP), which have increased fluorescence intensity when bound to KRAS. Rate of nucleotide exchange is determined by rate of increase in fluorescence after BGTP is added to GDP-KRAS in the absence or presence of SOS Rate of nucleotide release is determined from rate of decrease in, fluorescence when excess GTP is added to KRAS loaded with BGDP in the presence or absence of SOS, where SOS is “Sons of Sevenless” referring to a set of genes encoding guanine nucleotide exchange factors.

WT KRAS [4] = target: T2, WT KRAS; assay: SOS-mediated nucleotide exchange assay, WT KRAS; format: biochemical; conditions: for EC50: SOS-mediated nucleotide exchange, dose-response; for SOS-mediated nucleotide exchange WT, single-dose test (effect / No effect): 25 microMolar ligand
Experimental: as §6, §2

KRAS = KRAS (Homo sapiens, UniProt P01116, G12D); assay: Microscale thermophoresis (MST) binding affinity to KRAS (Table 1); conditions: 100 nM labeled KRAS, read-out: kD (dissociation constant)
KRAS, sequence (P01116 whole entry G12D): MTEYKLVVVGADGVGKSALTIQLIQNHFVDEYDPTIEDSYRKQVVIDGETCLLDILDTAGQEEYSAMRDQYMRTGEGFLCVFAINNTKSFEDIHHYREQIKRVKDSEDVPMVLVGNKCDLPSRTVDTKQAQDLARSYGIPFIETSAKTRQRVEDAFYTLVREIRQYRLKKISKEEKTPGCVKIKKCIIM
Experimental: as §4, §5
Dissociation constants (IQ)) calculated from the thermophoresis results of selected compounds according to the present disclosure are presented in Table 1 below.
as §3

T1 sequence (P01116 1-188 isoform P01116-2 G12D): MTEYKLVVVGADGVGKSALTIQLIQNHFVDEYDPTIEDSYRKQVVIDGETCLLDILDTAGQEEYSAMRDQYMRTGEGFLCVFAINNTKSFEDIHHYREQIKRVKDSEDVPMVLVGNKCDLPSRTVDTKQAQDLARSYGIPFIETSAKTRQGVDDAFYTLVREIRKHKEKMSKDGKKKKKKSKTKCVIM

Structure (SMILES) | Kd (G12D KRAS [1]) [µM] | Kd (wild type (WT) KRAS) [µM] | SOS-mediated nucleotide exchange WT, single-dose test (effect / No effect) (WT KRAS [4]) | also measured
COc1ccc(-c2nn3c(N4CCN(CCO)CC4)cc(-c4ccccc4)nc3c2-c2ccccc2)cc1 [Compound C37] | 11.8 ± 0.2 | 22.6 ± 0.3 | – | –
Cc1nn2c(N3CCN(CCO)CC3)cc(-c3ccc(F)cc3)nc2c1-c1ccccc1 [C21″] | 6.8 ± 0.5 | 4.6 ± 0.2 | – | Kd (G12D KRAS [2]): 0.52 ± 0.2 µM; EC50 (WT KRAS [3]): 34 ± 6.4 µM; EC50 (WT KRAS [4]): 18.8 ± 3.3 µM
Cc1cc2nc(-c3ccccc3)cc(N3CCN(CCO)CC3)n2n1 [Compound C44] | – | 5 to 15 | – | –
COCCN1CCN(c2cc(-c3ccccc3)nc3c(-c4ccccc4)c(C)nn23)CC1 [Compound C6] | – | – | – | Kd (KRAS): > 76 µM
OCCN1CCN(c2cc(-c3ccccc3)nc3c(-c4ccccc4)c(-c4cc[nH]c4)nn23)CC1 [Compound C36] | 22.4 ± 8 | 20.6 ± 0.4 | – | –
CCc1nn2c(N3CCN(CCO)CC3)cc(-c3ccccc3)nc2c1-c1ccccc1 [C26″] | – | – | effect in single- dose @ 25 uM | Intrinsic nucleotide exchange WT, single-dose test (effect / No effect) (WT KRAS [3]): effect in single- dose @ 25 uM
OCCN1CCN(c2cc(-c3ccccc3)nc3c(-c4ccccc4)c(C(F)(F)F)nn23)CC1 [C32″] | – | – | effect in single- dose @ 25 uM | Intrinsic nucleotide exchange WT, single-dose test (effect / No effect) (WT KRAS [3]): effect in single- dose @ 25 uM
Cc1nn2c(NCCN(C)C)cc(-c3ccccc3)nc2c1-c1ccccc1 [Compound C4] | – | – | – | Kd (KRAS): 0.99 ± 0.14 µM
Cc1nn2c(N3CCN(CCO)CC3)cc(-c3cc(F)cc(F)c3)nc2c1-c1ccccc1 [C33″] | 79 ± 78 | – | No effect in single dose @ 25 uM | Intrinsic nucleotide exchange WT, single-dose test (effect / No effect) (WT KRAS [3]): effect in single- dose @ 25 uM
Cc1cc(NCCN(C)C)n2nc(C)c(-c3ccccc3)c2n1 [Compound C16] | – | – | – | Kd (G12D KRAS [2]): > 200 µM
CCOC(=O)N1CCN(c2cc(-c3ccccc3)nc3c(-c4ccccc4)c(C)nn23)CC1 [C27″] | – | – | no effect in single dose @ 25 uM | –
Cc1nn2c(N3CCN(CCO)CC3)cc(-c3ccccc3)nc2c1-c1ccccc1 [C11″] | 4.54 ± 0.1 | – | – | Kd (G12D KRAS [2]): 0.87 ± 0.1 µM
COCc1nn2c(N3CCN(CCO)CC3)cc(-c3ccccc3)nc2c1-c1ccccc1 [Compound C43] | – | 5 to 15 | – | –
Cc1nn2c(N3CCN(CCO)CC3)cc(-c3ccncc3)nc2c1-c1ccccc1 [C22″] | – | – | no effect in single dose @ 25 uM | Kd (G12D KRAS [2]): > 100 µM
OCCN1CCN(c2cc(-c3ccccc3)nc3c(-c4ccccc4)c(-c4ccccc4)nn23)CC1 [C14″] | 11.2 ± 0.2 | 12.3 ± 0.1 | – | Kd (G12D KRAS [2]): 0.88 ± 0.4 µM; EC50 (WT KRAS [3]): 12.4 ± 4.8 µM
OCCN1CCN(c2cc(-c3ccccc3)nc3c(-c4ccccc4)c(-c4ccc(O)cc4)nn23)CC1 [Compound C38] | 63.1 ± 5.3 | 19.1 ± 0.1 | – | –
OCCN1CCN(c2cc(-c3ccccc3)nc3c(-c4ccccc4)c(C4CC4)nn23)CC1 [C29″] | – | – | effect in single- dose @ 25 uM | –

Structure (SMILES) | Kd (G12D KRAS [1]) [µM] | Kd (wild type (WT) KRAS) [µM] | SOS-mediated nucleotide exchange WT, single-dose test (effect / No effect) (WT KRAS [4]) | also measured
Cc1nn2c(NCCN(C)C)cc(-c3ccccc3)nc2c1-c1ccccc1 [Compound C15] | – | – | – | Kd (G12D KRAS [2]): 0.99 ± 0.1 µM
COCCN1CCN(c2cc(-c3ccccc3)nc3c(-c4ccccc4)c(C)nn23)CC1 [C17″] | – | – | – | Kd (G12D KRAS [2]): > 76 µM
Cc1nn2c(N3CCN(CCO)CC3)cc(-c3nccn3C)nc2c1-c1ccccc1 [C23″] | – | – | effect in single- dose @ 25 uM | Kd (G12D KRAS [2]): > 200 µM; Intrinsic nucleotide exchange WT, single-dose test (effect / No effect) (WT KRAS [3]): effect in single- dose @ 25 uM
Cc1nn2c(N3CCC(CCO)CC3)cc(-c3ccc(F)cc3)nc2c1-c1ccccc1 [Compound C39] | 22.9 ± 2.2 | 39.5 ± 1.9 | – | –
COc1ccccc1N1CCN(c2cc(-c3ccccc3)nc3c(-c4ccccc4)c(C)nn23)CC1 [Compound C18] | – | – | – | Kd (G12D KRAS [2]): > 86 µM
Cc1cc(N2CCN(CCO)CC2)n2nc(C)c(-c3ccccc3)c2n1 [C13″] | – | – | – | EC50 (WT KRAS [3]): 28.8 ± 4 µM; EC50 (WT KRAS [4]): 57.8 ± 4 µM
Cc1nn2c(NCCCN(C)C)cc(-c3ccccc3)nc2c1-c1ccccc1 [Compound C45] | – | 28.3 ± 5.4 | – | –
Cc1nn2c(N3CCN(CCO)CC3)cc(-c3ccc(O)cc3)nc2c1-c1ccccc1 [C30″] | 18.4 ± 10 | 12.2 ± 0.4 | – | EC50 (WT KRAS [4]): 15.9 ± 3.4 µM
OCCN1CCN(c2cc(-c3ccccc3)nc3c(-c4ccccc4)c(-c4ccccc4)nn23)CC1 [Compound C3] | – | – | – | Kd (KRAS): 0.88 ± 0.36 µM
Cc1nn2c(N3CCN(CCO)CC3)cc(-c3ccccc3)nc2c1-c1cc(F)cc(F)c1 [C28″] | 23.5 ± 0.8 | 21.7 ± 0.4 | No effect in single dose @ 25 uM | Intrinsic nucleotide exchange WT, single-dose test (effect / No effect) (WT KRAS [3]): effect in single- dose @ 25 uM
COc1ccc(-c2cc(N3CCN(CCO)CC3)n3nc(C)c(-c4ccccc4)c3n2)cc1 [C25″] | – | – | effect in single- dose @ 25 uM | –
COc1ccccc1N1CCN(c2cc(-c3ccccc3)nc3c(-c4ccccc4)c(C)nn23)CC1 [Compound C7] | – | – | – | Kd (KRAS): > 86 µM
Cc1nn2c(N3CCN(CCO)CC3)cc(-c3ccccc3)nc2c1-c1ccc(O)cc1 [C31″] | – | – | No effect in single dose @ 25 uM | Intrinsic nucleotide exchange WT, single-dose test (effect / No effect) (WT KRAS [3]): No effect in single dose @ 25 uM
Cc1nn2c(N3CCC(CCO)CC3)cc(-c3ccccc3)nc2c1-c1ccccc1 [Compound C40] | 25.7 ± 0.2 | 63.1 ± 5.3 | – | –
Cc1nn2c(N3CCN(CCO)CC3)nc(-c3ccccc3)nc2c1-c1ccccc1 [Compound C41] | – | ~20 | – | EC50 (WT KRAS [3]): 15 to 25 µM
Cc1nn2c(N3CCN(CCO)CC3)cc(-c3cc(O)cc(O)c3)nc2c1-c1ccccc1 [C35″] | 21.6 ± 4 | 8.4 ± 0.2 | No effect in single dose @ 25 uM | Intrinsic nucleotide exchange WT, single-dose test (effect / No effect) (WT KRAS [3]): effect in single- dose @ 25 uM

— patent US20230124492A1, “COMPOSITIONS AND METHODS FOR SUBSTITUTED 7-(PIPERAZIN-1-YL)PYRAZOLO[1,5-A]PYRIMIDINE ANALOGS AS INHIBITORS OF KRAS” (The Board of Regents of the University of Texas System, priority 2019, published 2023)
